Measured values from patent US20150191519A1, “VECTORS ENCODING A PARALYTIC PEPTIDE” (Soricimed Biopharma Inc., priority 2002, published 2015).

How the values were obtained:
[1] = system: human ovarian carcinoma cell line (OV 2008); test: calcium ion uptake by FURA-loaded ovarian carcinoma cells (fluorescence); format: cell-based; settings: for calcium uptake by OV-2008 cell line: FURA fluorescence after calcium chloride 2.5 mM, calcium chloride 5.0 mM, FIG. 16
Description: A human ovarian carcinoma cell line (OV 2008) was grown in MegaCell supplemented (Sigma Aldrich Chemical Co.) with 3% fetal calf serum (v/v), L-glutamine (584 mg/500 mL), and antibiotics penicillin and streptomycin (50 ug/ml) at 37° C. and in a humidified 5% carbon dioxide atmosphere. After confluence, the cells were harvested by incubation with Trypsin EDTA solution low in calcium and magnesium Dulbecco phosphate buffered saline (DPBS) at 37° C. and gentle shaking to detach them from the culture flask surface. After centrifugation and washing in the calcium-depleted medium, cells were incubated with 5 uM FURA 2 AM for 60 minutes to internalize this calcium sensitive fluorophore. After centrifuging and washing twice with DPBS, cells were allowed to de-esterify the FURA 2 AM for 30 minutes at 37° C., activating the calcium-sensitive FURA. Cells were then incubated with aliquots of a solution of pure soricidin. Fluorescent analysis used excitation at 340 nm and emission at a wavelength of 510 nm. After recording the baseline fluorescence of the cells, a bolus of calcium chloride (to final concentration of 2.5 mM) was delivered to the cell suspension and the fluorescence remeasured. After recording the fluorescence, the sample was treated with a bolus of potassium chloride (final concentration 20 mM) to activate any voltage gated calcium channels. Finally, the cells were treated with another bolus of […] raising the calcium ion concentration to 5.0 mM. The control situation was no treatment with soricidin peptide but with identical other treatments.
This transient receptor potential (TRP) calcium channel was blocked by soricidin. FIG. 16 illustrates

insect nerve tissue = test: calcium ion uptake by excised insect nerve tissue (FURA fluorescence); format: cell-based, flour beetle larvae (meal worms); settings: FIG. 17
Description: Central nerve pairs running along 5 body segments (including ganglia) were excised from flour beetle larvae (meal worms) and suspended in buffered invertebrate saline containing FURA 2 AM. After 60 minutes, the nerve tissue was removed from this solution, briefly washed in buffered saline and bathed with a solution of pure soricidin for 10 minutes. The nerve tissue was next immersed in a cuvette containing very low calcium ion concentration and a baseline fluorescence value recorded. A bolus of calcium chloride (to a final concentration of 5 mM) was added and, after 5 minutes, the fluorescence was determined. Finally, a bolus of potassium chloride was added to the preparation to a final concentration of 20 mM. The fluorescence was again determined. The control situation was exclusion of the soricidin, substituting instead a sham solution of buffered saline.

[2] = isoelectric pH by capillary isoelectric focusing; format: physicochemical; settings: migration time 33.9 min; calibrated with pI standard proteins
Description: The isoelectric pH of the shrew peptide soricidin was determined after calibration of the Beckmann-Coulter P/ACE MDQ Capillary Electrophoresis System with proteins of known isoelectric pH (2.75, 5.10, 5.90 and 9.45) and then co-isoelectric focusing of the standards with soricidin. […] The soricidin migration time (33.9 min) provided a pI of 4.20.

For “soricidin: 54 amino acid paralytic peptide isolated from shrew (Blarina brevicauda) submaxilary saliva gland, sequence of FIG. 1A (DCSQDCAACSILARPAELNTETCILECEGKLSSNDTEGGLCKEFLHPSKVDLPR; listed as Blarina brevicauda)”, the “calcium uptake by OV-2008 cell line” value ([1]; KCl 20 mM) was “inhibits calcium uptake”, the “calcium uptake by OV-2008 cell line” value ([1]; KCl 20 mM, listed as Soricidin) was “strongly inhibits calcium uptake” and the “TRP calcium channel CaT1 (TRPV6) of ovarian carcinoma cells” value ([1]; OV-2008) was “blocked”. For the same substance, the “small increase in calcium uptake in response to potassium ion challenge” value ([1]; OV-2008, KCl 20 mM) was “eliminated”, the “dose dependence of inhibition of calcium uptake” value ([1]; OV-2008, increases in amount caused no additional inhibition) was “saturated” and the “calcium uptake / calcium channels of insect neural tissue” value (insect nerve tissue) was “effectively blocks the general and voltage-gated calcium channels”. The “calcium uptake / calcium channels of insect neural tissue” value (insect nerve tissue; listed as Soricidin) was “inhibits calcium uptake”, the “increase in fluorescence (FURA/Calcium complex) less than in control” value (insect nerve tissue; nerve bathed in pure soricidin 10 minutes, calcium chloride and KCl 20 mM challenge) was 92% and the “isoelectric pH (pI)” value [2] was 4.20.
